Columns and labels:
[1] = Transport experiment in Caco-2 monolayers; assay type: in vitro ADME, human; conditions: human, Caco-2
Procedure: (§1) The absorptions of troxerutin and its acylated derivatives was measured as described by Chen et al.. Caco-2 cells were cultured in DMEM supplemented with 10% FBS, 100 μg/mL streptomycin, and 100 U/mL penicillin at 37 °C in an atmosphere of 5% CO2 and the medium was changed every 2 days. Caco-2 cells used in this study were seeded onto 12-well translucent Transwell inserts (0.4 μm pore size, Corning Costar, Corning, NY, USA) at a density of 2.5 × 10^5 cells/mL and grown for 3 weeks. Transepithelial electrical resistance (TEER) and lucifer yellow were measured to detect the integrity of Caco-2 monolayers. TEER values were measured by using a voltammeter (Millicell ERS, Millipore, Bedford, MA, USA) and the amount of lucifer yellow transported to the basolateral side in a 2.5-h period was quantified by using a fluorospectrometer (Fluoroskan Ascent FL, Thermo Labsystems, Helsinki, Finland) at an excitation wavelength of 425 nm and emission wavelength of 530 nm. ALP activity was measured to detect the differentiation degree of Caco-2 monolayers by using an ALP Assay Kit.
(§2) Samples (100 μM, 0.5 mL) were placed on the apical (AP) side along with 1.5 mL of HBSS added to the basolateral (BL) side. […] The volume removed from the recipient side was replaced with fresh HBSS at 30, 60, 90, 120, and 150 min. The concentrations on the BL side were measured by HPLC. The apparent permeability coefficients (Papp, cm/s) were calculated according to the equation: Papp=dQ/dt×V/A×C0, where the dQ/dt is the permeability rate (μM/s) calculated from the slope of the amount of tested compounds transported versus time, V is the volume of the basolateral chamber (mL), A is the surface area of the inset (cm^2), and C0 is the initial concentration (μM) of the samples.

[2] = after oral consumption; cited from earlier work
Caco-2 monolayers = assay: Transport experiment in Caco-2 monolayers; assay type: in vitro ADME, human; conditions: Caco-2 monolayers
Procedure: as §1, §2

[3] = 1-octanol/water partition coefficient (logP); assay type: physicochemical
Procedure: The 1-octanol/water partition coefficients of troxerutin and its propionyl derivatives were measured as previously described. Each compound was fully mixed with 1-octanol and then vigorously mixed with an equal amount of water. After equilibration for 30 min, the concentrations of compound in each layer were respectively measured by HPLC. The results are shown as common logarithms (logP).

[4] = Hydroxyl radical scavenging ability; conditions: sample concentration 20 μM
Procedure: (§3) Scavenging abilities of hydroxyl and ABTS radicals, and ORAC were measured as described previously with some modifications. A 759S UV/Vis spectrophotometer (Lengguang Technology, Shanghai, China) was used to determine the absorbance of HO· at 532 nm and ABTS^·+ at 734 nm. ORAC analysis was conducted using a Fluoroskan Ascent microplate reader (Thermo Electron Corp., Waltham, MA, USA) at excitation and emission wavelengths of 485 and 530 nm, respectively. Trolox or vitamin C (VC) was used as a positive control, the sample concentration was 20 μM, and all experiments were repeated independently in triplicate.

[5] = ABTS radical scavenging ability; conditions: sample concentration 20 μM
Procedure: as §3

[6] = ORAC assay (fluorescence quenching induced by AAPH); conditions: 20 μM
Procedure: as §3

erythrocytes = assay: Erythrocyte hemolysis induced by AAPH; assay type: cell-based, sheep; conditions: 20 μM sample, 200 mM AAPH, 2.5 h, 37 °C
Procedure: The hemolysis study was performed according to the method of Zhang et al. with some modifications. Erythrocytes from healthy sheep were centrifuged at 770×g for 10 min at 4 °C and washed three times with PBS. Equal amounts of erythrocyte suspension (20%, v/v) and sample solution (20 μM) were mixed and the mixture was incubated for 20 min at 37 °C. After adding 200 mM AAPH, incubation was continued for a further 2.5 h at the same temperature. The final reaction system was diluted with 8 mL PBS and then centrifuged at 1200×g for 10 min at 4 °C. The degree of hemolysis in the supernatant was determined by measuring the absorbance at 540 nm. To obtain the complete hemolysate, ultrapure water was added to the mixture. PBS was used as a negative control and Trolox was used as a positive control. These values were measured using a 756S UV/Vis spectrophotometer (Lengguang Technology). The treated supernatant was collected to measure the level of MDA. All experiments were performed independently in triplicate. The hemolysis rate was calculated using the equation: Hemolysis rate%=OD540of sample/OD540of complete hemolysis×100%.

[7] = test system: erythrocyte lysate membrane lipid peroxidation; assay: Lipid peroxidation (MDA release) after complete hemolysis; assay type: cell-based, sheep; conditions: erythrocytes completely hemolysed in cold ultrapure water, lysate treated with AAPH

SMILES | Papp A→B at 150 min, 100 μM [1] | Papp B→A at 150 min, 100 μM [1] | logP at 30 min [3] | Bioavailability [2] | Papp at 150 min, 100 μM [1] | UR (uptake ratio = Papp AP–BL/Papp BL–AP) (Caco-2 monolayers) | Free radical scavenging ability HO· [4] | Free radical scavenging ability ABTS·+ [5] | Capacity to inhibit fluorescence quenching (ORAC), rank order [6] | Inhibition effects on AAPH-induced erythrocyte hemolysis, rank order (erythrocytes) | Inhibition of AAPH-induced erythrocyte hemolysis (erythrocytes) | Inhibition ability for membrane lipid peroxidation (MDA release), rank order [7]
CC(C)NCC(O)COc1cccc2ccccc12 (centres unmarked) [Propranolol] | 48.9 ± 3.3 ×10⁻⁶ cm/s | 44 ± 2.98 ×10⁻⁶ cm/s |  | > 90% |  |  |  |  |  |  |  | 
C[C@@H]1O[C@@H](OC[C@H]2O[C@@H](Oc3c(-c4ccc(O)c(O)c4)oc4cc(O)cc(O)c4c3=O)[C@H](O)[C@@H](O)[C@@H]2O)[C@H](O)[C@H](O)[C@H]1O [Rutin, rutin] | 0.06 ± 0.01 ×10⁻⁶ cm/s | 0.06 ± 0.02 ×10⁻⁶ cm/s |  |  | 0.06 ×10⁻⁶ cm/s | 1.00 ± 0.05 |  |  |  |  |  | 
O=C1O[C@H]([C@@H](O)CO)C(O)=C1O [VC, vitamin C, reference compound] |  |  |  |  |  |  | 99.3 ± 0.05 a % | 100 ± 0.02 a % |  |  |  | 

More lines, main results first:

Papp A→B at 150 min, 100 μM [1] | Papp B→A at 150 min, 100 μM [1] | logP at 30 min [3] | SMILES | Bioavailability [2] | Papp at 150 min, 100 μM [1] | UR (uptake ratio = Papp AP–BL/Papp BL–AP) (Caco-2 monolayers) | Free radical scavenging ability HO· [4] | Free radical scavenging ability ABTS·+ [5] | Capacity to inhibit fluorescence quenching (ORAC), rank order [6] | Inhibition effects on AAPH-induced erythrocyte hemolysis, rank order (erythrocytes) | Inhibition of AAPH-induced erythrocyte hemolysis (erythrocytes) | Inhibition ability for membrane lipid peroxidation (MDA release), rank order [7]
1.54 ± 0.17 ×10⁻⁶ cm/s | 1.53 ± 0.21 ×10⁻⁶ cm/s | 1.51 ± 0.05 | CCC(=O)OCCOc1cc(O)c2c(=O)c(OC3OC(COC4OC(C)C(O)C(O)C4O)C(O)C(O)C3O)c(-c3ccc(OCCOC(=O)CC)c(OCCO)c3)oc2c1 (centres unmarked) [TDE] |  |  |  | 89.7 ± 1.8 c % | 81.5 ± 2.1 c % | troxerutin ≈ TME > TDE | troxerutin < TME ≈ TDE | effectively inhibited | troxerutin ≈ TME > TDE
0.99 ± 0.12 ×10⁻⁶ cm/s | 1.05 ± 0.12 ×10⁻⁶ cm/s | < 0 | CCC(=O)OCCOc1ccc(-c2oc3cc(OCCO)cc(O)c3c(=O)c2OC2OC(COC3OC(C)C(O)C(O)C3O)C(O)C(O)C2O)cc1OCCO (centres unmarked) [TME] |  |  |  | 95.2 ± 3.5 b % | 90.4 ± 3.0 b % | troxerutin ≈ TME > TDE | troxerutin < TME ≈ TDE | effectively inhibited | troxerutin ≈ TME > TDE
0.34 ± 0.05 ×10⁻⁶ cm/s | 0.35 ± 0.03 ×10⁻⁶ cm/s |  | C[C@@H]1O[C@@H](OC[C@H]2O[C@@H](Oc3c(-c4ccc(OCCO)c(OCCO)c4)oc4cc(OCCO)cc(O)c4c3=O)[C@H](O)[C@@H](O)[C@@H]2O)[C@H](O)[C@H](O)[C@H]1O [Troxerutin, troxerutin] |  |  |  | 97.1 ± 2.7 ab % | 96.8 ± 4.1 ab % | troxerutin ≈ TME > TDE | troxerutin < TME ≈ TDE | effectively inhibited | troxerutin ≈ TME > TDE

Reference: publication PMC6106897, “Biocatalytic synthesis of acylated derivatives of troxerutin: their bioavailability and antioxidant properties in vitro” (Microbial Cell Factories, 2018)
